Test results published in patent US20090017103A1, “Antisense oligonucleotides for prevention of metastasis formation of cancer cells” (priority 2003, published 2009).
Marks after values point to notes of the source that are not given here.

Assays:
Type in all cases: cell-based, human
[1] = test system: MDA-MB-231 breast cancer cells; experiment: Clonogenicity assay (colony formation); conditions: for % Control / Mean colony no.: Experiment II, single treatment; for Mean colony no.: control 705; for inhibition of colony formation (colony growth inhibition): single exposure
Procedure: For determining the response of MDA-MB-231 colony formation to exposure with antisense oligonucleotides and erucylphospho-NNN-trimethylpropanolamine (ErPC3) the following procedure was used. MDA-MB-231 cells were treated for various periods of time (see below), harvested and counted. Cells (5000) were then transferred into semi-solid medium containing 0.8t RPMI-methylcellulose and 30% FBS. Cells were plated onto 3.5 cm Petri-dishes (1 ml/dish) (NUNC, Wiesbaden, Germany) and usual cell culture conditions (37° C., 5% CO2 in humidified air) were applied. Colony formation (clusters of 30 or more cells) was visualized by staining with 3-[4,5-dimethylthiazol-2-yl]-2,5-diphenyltetrazolium-bromide (MTT; Serva, Heidelberg, Germany) and the resulting dark blue colonies were scored by an inverted microscope after 5-7 days. At least three dishes per treatment protocol were used.
Pending on the duration of treatment, 1×10^5-3×10^5 cells were transferred onto 6 well plates (Nunc, Wiesbaden, Germany) and grown for 24 h. For transfection, ASO stock solutions were prepared in medium without FBS. According to the protocol of the manufacturer, the respective ASO stock solution was mixed with lipofectamine to allow ASO-liposome complexes to form. To 200 μl medium containing ASO quantities resulting in 10 μM (Western blot and in vivo model) and in 5, 10, or 20 μM (clonogenicity assay) final ASO-concentrations, an equal volume of medium without FBS was added containing 5, 10, or 20 μl lipofectamine, respectively. In addition to the ASO treatment, a NSO control (20 μM final concentration with 20 μl lipofectamine) and a lipofectamine control (20 μl) were used. […] After 12 h the medium was changed, and cells were further grown for 48-72 h. In the case of a sequential combination treatment this first cycle was repeated with the respective combination partner.
The alkylphosphocholine ErPC3 was synthesized and provided by Prof. H. Eibl (MPI of Biophysical Chemistry, Göttingen, FRG). For treating MDA-MB-231 cells, ErPC3 which was kept as stock solution in ethanol and PBS (10 mM; ratio of diluents 1:1; V:V), was diluted in PBS resulting in final concentrations of 10, 14, and 20 μM. The medium containing ErPC3 was changed after 24 h in all experiments and the cells were further grown for 48-72 h without ErPC3 (for details of sequential exposure see below).
Sequential combination treatment consisted of two or three treatment cycles. The two cycle treatment started either with the ASO and was followed by ErPC3 or was performed with the reverse sequence. The three cycle treatment started either with two cycles of ASO followed by ErPC3 or an initial exposure to ErPC3 was followed by two cycles with an ASO.
Colony counts are presented as mean with corresponding standard deviation. For comparison of incidences between treatment groups the x^2 test was used and for comparison of the lesion sizes the Kruskal-Wallis test was applied. P values≦0.05 were considered significant. Predicted theoretical values of combinations were calculated according to the equation: C=a×b/100, where a and b are colony counts in percent of untreated control obtained in response to single agents. For each concentration applied theoretical values were calculated and compared with the real value of the combination. In addition, isobologram and multiple drug effect analysis was examined by a suitable program (CalcuSyn, Biosoft, Ferguson, USA) to study the nature of the interaction observed. For this purpose, the dose-effect curve for each drug alone was determined based on the experimental observations using the median-effect principle; the combination index (CI) for each combination was then calculated according to the following equation:
CI=(D)1/(Dx)1+(D)2/(Dx)2+(D1)×(D2)/(Dx)1×(Dx)2
where (D)1 and (D)2 are the doses of drug 1 and drug 2 that have x effect when used in combination and (Dx)1 and (Dx)2 are the doses of drug 1 and drug 2 that have the same x effect when used alone. […]

[2] = test system: osteonectin; experiment: Western blot of osteonectin expression after exposure to ASOs; conditions: for osteonectin expression in relation to untreated control (100%): single exposure, lipofectamine, 10 μM
[3] = test system: osteopontin; experiment: Western blot of osteopontin expression after exposure to ASOs; conditions: MDA-MB231, lipofectamine, 10 μM
[4] = MDA-MB231^F (growing without FBS)

With “5′-GGGGGCTGGGCAGCTGGTGG-3′ (antisense GGGGGCTGGGCAGCTGGTGG; all phosphorothioate, sugars by position and methylation of C not given here) [ASO-ON-3]” as the substance, how does the “% Control” value ([1]; 5 μM) read?
Its value is 92%.

And the Mean colony no. ([1]; 5 μM)?
The Mean colony no. was 648^6).

And the “% Control” value ([1]; 10 μM)?
Its value is 82%.

What about the Mean colony no. ([1]; 10 μM) of the same substance?
Its Mean colony no. is 576^7).

What about the “% Control” value ([1]; 20 μM) of the same substance?
Its value is 73%.

And the Mean colony no. ([1]; 20 μM)?
The Mean colony no. was 514.

And the “inhibition of colony formation (colony growth inhibition)” value (“inhibition of colony formation” below) ([1]; 5 μM)?
The value was 8%.

What about the “inhibition of colony formation” value ([1]; 10 μM) of the same substance?
Its value is 14%.

And the “inhibition of colony formation” value ([1]; 20 μM)?
The value was 27%.

And the “inhibition of colony formation” value ([1]; 20 μM, listed as ASO-ON-03, 20 µM)?
The value was 21%.

And the “osteonectin expression in relation to untreated control (100%)” value (“osteonectin expression in relation … (100%)” below) ([2]; MDA-MB231)?
Its value is 25%.

And the “osteonectin expression in relation … (100%)” value [2, 4]?
The value was 22%.

And the “osteonectin expression in relation … (100%)” value ([2]; MDA-MB435s)?
The value was 29%.

And the decrease of osteonectin ([2]; MDA-MB-231 cells)?
The decrease of osteonectin was 75%.

And the “maximum inhibition of protein expression / suppression of protein level (ON)” value ([2]; MDA-MB-231 cells, Western blot)?
Its value is 75%.

For “5′-GGTCTGCGAAACTTCTTAGA-3′ [ASO-OPN-9]”, which “osteopontin expression in relation to untreated control (100%)” value (“osteopontin expression in relation … (100%)” for short) ([3]; twofold exposure) is on record?
The value was 74%.

How did the “osteopontin expression in relation … (100%)” value ([3]; single exposure) turn out when “5′-ATGTGGCCACAGCATCTGGG-3′ (antisense ATGTGGCCACAGCATCTGGG; all phosphorothioate, sugars by position and methylation of C not given here) [ASO-OPN-8]” was run?
Its value is 48%.

What about the “osteopontin expression in relation … (100%)” value ([3]; twofold exposure) of the same substance?
Its value is 97%.

“5′-AGGTCACAGGTCTCGAAAAA-3′ (antisense AGGTCACAGGTCTCGAAAAA; all phosphorothioate, sugars by position and methylation of C not given here) [ASO-ON-6]” was tested. Which “osteonectin expression in relation … (100%)” value ([2]; MDA-MB231) did it give?
Its value is 52%.

What about the “osteonectin expression in relation … (100%)” value [2, 4] of the same substance?
Its value is 44%.

And the “osteonectin expression in relation … (100%)” value ([2]; MDA-MB435s)?
The value was 56%.

With “5′-AGATCCAGGCCCTCATGGTG -3′ (antisense AGATCCAGGCCCTCATGGTG; all phosphorothioate, sugars by position and methylation of C not given here) [ASO-ON-1]” as the substance, how does the “osteonectin expression in relation … (100%)” value ([2]; MDA-MB231) read?
The value was 39^3) %.

And the “osteonectin expression in relation … (100%)” value [2, 4]?
Its value is 44%.

What about the “osteonectin expression in relation … (100%)” value ([2]; MDA-MB435s) of the same substance?
Its value is 46%.

With “5′-ATGCGCAGGGGGAATTCGGT (antisense ATGCGCAGGGGGAATTCGGT; all phosphorothioate, sugars by position and methylation of C not given here) [ASO-ON-4]” as the substance, how does the “osteonectin expression in relation … (100%)” value ([2]; MDA-MB231) read?
The value was 50%.

And the “osteonectin expression in relation … (100%)” value [2, 4]?
The value was 31%.

What about the “osteonectin expression in relation … (100%)” value ([2]; MDA-MB435s) of the same substance?
The value was 62%.

Which “osteopontin expression in relation … (100%)” value ([3]; single exposure) does the source give for “5′-ACACTAACTTAAAAAACAAA-3′ (antisense ACACTAACTTAAAAAACAAA; all phosphorothioate, sugars by position and methylation of C not given here) [ASO-OPN-5]” here?
Its value is 43%.

What about the “osteopontin expression in relation … (100%)” value ([3]; twofold exposure) of the same substance?
The value was 80%.

What does the source list for “5′-TTCAGGTCCTGGGCAACGGG-3′ [ASO-OPN-2]”?
osteopontin expression in relation to untreated control (100%) ([3]; single exposure): 45%; osteopontin expression in relation to untreated control (100%) ([3]; twofold exposure): 60%

With “5′-GTTCAGGTCCTGGGCAACGG-3 (antisense GTTCAGGTCCTGGGCAACGG; all phosphorothioate, sugars by position and methylation of C not given here) [ASO-OPN-3]” as the substance, how does the “osteopontin expression in relation … (100%)” value ([3]; single exposure) read?
Its value is 32%.

What about the “osteopontin expression in relation … (100%)” value ([3]; twofold exposure) of the same substance?
The value was 38%.

What does the source list for “5′-CAAACATTTTAAACATTGGG-3′ (antisense CAAACATTTTAAACATTGGG; all phosphorothioate, sugars by position and methylation of C not given here) [ASO-ON-9]”?
osteonectin expression in relation to untreated control (100%) ([2]; MDA-MB231): 37%; osteonectin expression in relation to untreated control (100%) [2, 4]: 21%; osteonectin expression in relation to untreated control (100%) ([2]; MDA-MB435s): 49%

“5′-CTCATGGTAGTGAGTTTTCC-3′ (antisense CTCATGGTAGTGAGTTTTCC; all phosphorothioate, sugars by position and methylation of C not given here) [ASO-OPN-1]” was tested. Which “osteopontin expression in relation … (100%)” value ([3]; single exposure) did it give?
Its value is 25^2)3) %.

What about the “osteopontin expression in relation … (100%)” value ([3]; twofold exposure) of the same substance?
The value was 34^2)3) %.

What does the source list for “5′-GTGGCCACAGCATCTGGGTA-3′ [ASO-OPN-6] (antisense GTGGCCACAGCATCTGGGTA; all phosphorothioate, sugars by position and methylation of C not given here)”?
osteopontin expression in relation to untreated control (100%) ([3]; single exposure): 45%; osteopontin expression in relation to untreated control (100%) ([3]; twofold exposure): 68%

How did the “osteopontin expression in relation … (100%)” value ([3]; twofold exposure) turn out when “5′-TCAGGTCTGCGAAACTTCTT-3′ [ASO-OPN-10]” was run?
The value was 86%.

“5′-GTGGCCACAGCATCTGGGTA-3′ [ASO-OPN-7] (antisense GTGGCCACAGCATCTGGGTA; all phosphorothioate, sugars by position and methylation of C not given here)” was tested. Which “osteopontin expression in relation … (100%)” value ([3]; single exposure) did it give?
Its value is 31%.

What about the “osteopontin expression in relation … (100%)” value ([3]; twofold exposure) of the same substance?
Its value is 69%.

How did the “osteonectin expression in relation … (100%)” value ([2]; MDA-MB231) turn out when “5′-TTGAAGTTTCTCTTGATTAA-3′ (antisense TTGAAGTTTCTCTTGATTAA; all phosphorothioate, sugars by position and methylation of C not given here) [ASO-ON-10]” was run?
Its value is 46%.

And the “osteonectin expression in relation … (100%)” value [2, 4]?
Its value is 35%.

And the “osteonectin expression in relation … (100%)” value ([2]; MDA-MB435s)?
Its value is 46%.

How did the “osteonectin expression in relation … (100%)” value ([2]; MDA-MB231) turn out when “5′- TGTACTTGTCATTGTCCAGG-3′ (antisense TGTACTTGTCATTGTCCAGG; all phosphorothioate, sugars by position and methylation of C not given here) [ASO-ON-7]” was run?
Its value is 50%.

And the “osteonectin expression in relation … (100%)” value [2, 4]?
The value was 32%.

What about the “osteonectin expression in relation … (100%)” value ([2]; MDA-MB435s) of the same substance?
Its value is 64%.

Which results are given for “5′-ATGTTATAGTTCTTCTCGAA-3′ [ASO-ON-5]”?
osteonectin expression in relation to untreated control (100%) ([2]; MDA-MB231): 30%; osteonectin expression in relation to untreated control (100%) [2, 4]: 22%; osteonectin expression in relation to untreated control (100%) ([2]; MDA-MB435s): 27%; decrease of osteonectin ([2]; MDA-MB-231 cells): 70%
